Experimental data taken from patent US20200405697A1, “Antitumor Agent” (Taiho Pharmaceutical Co., Ltd, priority 2017, published 2020).

target: T1, human RNR (histidine tagged human M1 and human M2 proteins) (Homo sapiens, UniProt P23921); experiment: Human RNR inhibition effect (dCDP formation from CDP); assay type: biochemical; conditions: 10 μM CDP, 37° C. for 30 minutes, read-out: RNR inhibitory activity IC50
T1 construct: made in house; host or cells: Escherichia coli
T1 sequence (P23921 1-792): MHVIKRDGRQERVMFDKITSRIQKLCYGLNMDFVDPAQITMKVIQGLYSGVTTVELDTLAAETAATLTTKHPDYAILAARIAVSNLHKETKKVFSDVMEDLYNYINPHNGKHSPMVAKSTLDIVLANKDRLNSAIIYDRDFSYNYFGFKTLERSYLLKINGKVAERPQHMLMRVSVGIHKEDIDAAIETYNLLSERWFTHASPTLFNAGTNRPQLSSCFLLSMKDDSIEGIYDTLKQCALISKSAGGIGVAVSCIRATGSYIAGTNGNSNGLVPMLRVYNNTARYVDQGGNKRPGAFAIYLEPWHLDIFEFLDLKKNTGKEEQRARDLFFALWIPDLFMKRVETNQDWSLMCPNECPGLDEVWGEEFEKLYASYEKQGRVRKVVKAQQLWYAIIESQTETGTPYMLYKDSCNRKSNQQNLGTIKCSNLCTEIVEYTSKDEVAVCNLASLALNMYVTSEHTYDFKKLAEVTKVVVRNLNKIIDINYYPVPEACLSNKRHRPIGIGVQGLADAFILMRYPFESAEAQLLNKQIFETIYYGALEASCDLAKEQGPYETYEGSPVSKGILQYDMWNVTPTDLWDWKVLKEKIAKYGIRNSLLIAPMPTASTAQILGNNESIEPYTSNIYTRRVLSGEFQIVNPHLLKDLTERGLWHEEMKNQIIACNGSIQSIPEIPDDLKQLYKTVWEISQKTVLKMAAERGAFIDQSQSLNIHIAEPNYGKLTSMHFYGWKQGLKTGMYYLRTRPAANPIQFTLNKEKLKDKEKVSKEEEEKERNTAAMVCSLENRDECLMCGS
Description: The inhibitory activity against the ribonucleotide reduction reaction (RNR inhibitory activity) of the Example compound was determined by measuring the formation of deoxycytidine diphosphate (hereinafter referred to as dCDP) from cytidine diphosphate (hereinafter referred to as CDP) by the following method.
Human M1 subunit (isoform 1, GenBank accession No: NM_001033), to which a histidine tag is fused at the amino terminus, and human M2 subunit (mutant lacking amino terminal 59 amino acids of isoform 2, GenBank accession No: NM_001034), to which a histidine tag is fused, were overexpressed in Escherichia coli and were solubilized after collection, and histidine tagged human M1 and histidine tagged human M2 proteins were purified on a nickel chelate column. A mixture of the histidine tagged human M1 and histidine tagged human M2 proteins was used as RNR in the ribonucleotide reduction reaction. [to]
First, Example compounds were serially diluted with DMSO. Next, human M1 protein and human M2 protein were added to a 0.02% aqueous albumin solution derived from fetal bovine serum, a DMSO solution of the Example compound or the control DMSO solution (final concentration of DMSO was 1%) was added, and the mixture was allowed to stand for 20 minutes. Thereafter, the reaction buffer [50 mM HEPES buffer (pH 7.2) at the final concentration, 4 mM magnesium acetate at the final concentration, 100 mM potassium chloride at the final concentration, 6 mM dithiothreitol at the final concentration, 2 mM adenosine triphosphate at the final concentration, 0.24 mM nicotinamide adenine dinucleotide phosphate at final concentration] and 10 μM CDP at the final concentration were added and incubated at 37° C. for 30 minutes to perform ribonucleotide reduction reaction. Immediately after the reaction, the reaction was stopped by heating at 100° C. for 15 minutes, followed by centrifugation at 10,000 rpm for 10 minutes. After the centrifugation, a portion (5 μL) of the resulting supernatant was analyzed with a high performance liquid chromatography (Shimadzu Corporation, Prominence) using Shim-pack XR-ODS (manufactured by Shimadzu GLC Co., 3.0×100 mm).

Compound	IC50 [nM]
Cc1ccc(F)c([C@@H](C)[C@H](NS(=O)(=O)c2ccc(Cl)c(S(N)(=O)=O)c2)c2n[nH]c(=O)o2)c1C [Example 176, 4-chloro-N1-((1S,2R)-2-(6-fluoro-2,3-dimethylphenyl)-1-(5-oxo-4,5-dihydro-1,3,4-oxadiazol-2-yl)propyl)benzene-1,3-disulfonamide]	810
C[C@H](c1cccc2c1CCC2)[C@H](NS(=O)(=O)c1ccc(F)c(C(C)(C)O)c1F)c1n[nH]c(=O)o1 [Example 189, N-((1S,2R)-2-(2,3-dihydro-1H-inden-4-yl)-1-(5-oxo-4,5-dihydro-1,3,4-oxadiazol-2-yl)propyl)-2,4-difluoro-3-(2-hydroxypropan-2-yl)benzenesulfonamide]	550
Cc1ccc(F)c([C@@H](C)[C@H](NS(=O)(=O)c2ccc3c(c2)OCCO3)c2n[nH]c(=O)o2)c1C [Example 173, N-((1S,2R)-2-(6-fluoro-2,3-dimethylphenyl)-1-(5-oxo-4,5-dihydro-1,3,4-oxadiazol-2-yl)propyl)-2,3-dihydrobenzo[b][1,4]dioxin-6-sulfonamide]	130
Cc1c(Cl)ccc(F)c1[C@@H](C)[C@H](NS(=O)(=O)c1ccc(Cl)c2c1OCCC2(C)O)c1n[nH]c(=O)o1 (single isomer, unassigned) [Example 209B]	180
COC(=O)c1cc(Cl)cnc1S(=O)(=O)N[C@H](c1n[nH]c(=O)o1)[C@H](C)c1c(F)ccc(C)c1C [Example 118, methyl 5-chloro-2-(N-((1S,2R)-2-(6-fluoro-2,3-dimethylphenyl)-1-(5-oxo-4,5-dihydro-1,3,4-oxadiazol-2-yl)propyl)sulfamoyl)nicotinate]	340
Cc1ccc(F)c([C@@H](C)[C@H](NS(=O)(=O)c2cc(-c3nnco3)ccc2C(N)=O)c2n[nH]c(=O)o2)c1C [Example 331, 2-(N-((1S,2R)-2-(6-fluoro-2,3-dimethylphenyl)-1-(5-oxo-4,5-dihydro-1,3,4-oxadiazol-2-yl)propyl)sulfamoyl)-4-(1,3,4-oxadiazol-2-yl)benzamide]	90
Cc1ccc(F)c([C@@H](C)[C@H](NS(=O)(=O)c2ccc(Cl)c(C(=O)N3CCC(N)C3)n2)c2n[nH]c(=O)o2)c1C (stereo partly drawn) [Example 283, 6-(3-aminopyrrolidine-1-carbonyl)-5-chloro-N-((1S,2R)-2-(6-fluoro-2,3-dimethylphenyl)-1-(5-oxo-4,5-dihydro-1,3,4-oxadiazol-2-yl)propyl)pyridine-2-sulfonamide]	150
Cc1ccc(F)c([C@@H](C)[C@H](NS(=O)(=O)c2cc(C(C)(C)O)c(F)cc2C(N)=O)c2n[nH]c(=O)o2)c1C [Example 196, 5-fluoro-2-(N-((1S,2R)-2-(6-fluoro-2,3-dimethylphenyl)-1-(5-oxo-4,5-dihydro-1,3,4-oxadiazol-2-yl)propyl)sulfamoyl)-4-(2-hydroxypropan-2-yl)benzamide]	80
[2H]C([2H])([2H])C1(OC(C)=O)CCOc2c(S(=O)(=O)N[C@H](c3n[nH]c(=O)o3)[C@H](C)c3c(F)ccc(C)c3C)ccc(Cl)c21 (stereo partly drawn) [Example 129, 5-Chloro-8-(N-((1S,2R)-2-(6-fluoro-2,3-dimethylphenyl)-1-(5-oxo-4,5-dihydro-1,3,4-oxadiazol-2-yl)propyl)sulfamoyl)-4-methyl-d3-chroman-4-yl Acetate]	100
COc1cc(Cl)ccc1S(=O)(=O)N[C@H](c1n[nH]c(=O)o1)C(O)c1c(F)ccc(C)c1C (mixture of isomers) [Example 290, 4-chloro-N-((1S)-2-(6-fluoro-2,3-dimethylphenyl)-2-hydroxy-1-(5-oxo-4,5-dihydro-1,3,4-oxadiazol-2-yl)ethyl)-2-methoxybenzenesulfonamide]	840
COc1cc(Cl)ccc1S(=O)(=O)N[C@H](c1n[nH]c(=S)[nH]1)[C@H](C)c1c(F)ccc(C)c1C [Example 350]	460
Cc1ccc(F)c([C@@H](C)[C@H](NS(=O)(=O)c2cc(C(=O)N(C)C)c(Cl)cc2C(N)=O)c2n[nH]c(=O)o2)c1C [Example 39, 2-chloro-5-(N-((1S,2R)-2-(6-fluoro-2,3-dimethylphenyl)-1-(5-oxo-4,5-dihydro-1,3,4-oxadiazol-2-yl)propyl)sulfamoyl)-N1,N1-dimethyl terephthalamide]	40
CNC(=O)c1cc(Br)cnc1S(=O)(=O)N[C@H](c1n[nH]c(=O)o1)[C@H](C)c1c(F)ccc(C)c1C [Example 251, 5-bromo-2-(N-((1S,2R)-2-(6-fluoro-2,3-dimethylphenyl)-1-(5-oxo-4,5-dihydro-1,3,4-oxadiazol-2-yl)propyl)sulfamoyl)-N-methylnicotinamide]	250
Cc1ccc(F)c([C@@H](C)[C@H](NS(=O)(=O)c2ccc(F)c3c2OCCC3O)c2n[nH]c(=O)o2)c1C (single isomer, unassigned) [Example 230B]	50
Cc1ccc(F)c([C@@H](C)[C@H](NS(=O)(=O)c2cc(C(=O)N3CCOCC3)ccc2C(N)=O)c2n[nH]c(=O)o2)c1C [Example 36, 2-(N-((1S,2R)-2-(6-fluoro-2,3-dimethylphenyl)-1-(5-oxo-4,5-dihydro-1,3,4-oxadiazol-2-yl)propyl)sulfamoyl)-4-(morpholine-4-carbonyl)benzamide]	110
Cc1ccc(F)c([C@@H](C)[C@H](NS(=O)(=O)c2ccc(Cl)c(C(=O)N3CC4CCC(C3)O4)n2)c2n[nH]c(=O)o2)c1C [Example 117, 6-(8-oxa-3-azabicyclo[3.2.1]octane-3-carbonyl)-5-chloro-N-((1S,2R)-2-(6-fluoro-2,3-dimethylphenyl)-1-(5-oxo-4,5-dihydro-1,3,4-oxadiazol-2-yl)propyl)pyridine-2-sulfonamide]	30
Cc1ccc(F)c([C@@H](C)[C@H](NS(=O)(=O)c2cnc(Cl)cc2C(N)=O)c2n[nH]c(=O)o2)c1C [Example 40, 2-chloro-5-(N-((1S,2R)-2-(6-fluoro-2,3-dimethylphenyl)-1-(5-oxo-4,5-dihydro-1,3,4-oxadiazol-2-yl)propyl)sulfamoyl)isonicotinamide]	130
Cc1ccc(F)c([C@@H](C)[C@H](NS(=O)(=O)c2ccc(Cl)c3c2OCCN3CC(F)F)c2n[nH]c(=O)o2)c1C [Example 102, 5-chloro-4-(2,2-difluoroethyl)-N-((1S,2R)-2-(6-fluoro-2,3-dimethylphenyl)-1-(5-oxo-4,5-dihydro-2,3,4-oxadiazol-2-yl)propyl)-3,4-dihydro-2H-benzo[b][1,4]oxazine-8-sulfonamide]	140
C[C@H](c1c(F)ccc2ccccc12)[C@H](NS(=O)(=O)c1ccc(Cl)c2c1OCCC2O)c1n[nH]c(=O)o1 (stereo partly drawn) [Example 233, 5-chloro-N-((1S,2R)-2-(2-fluoronaphthalene-1-yl)-1-(5-oxo-4,5-dihydro-1,3,4-oxadiazol-2-yl)propyl)-4-hydroxychroman-8-sulfonamide]	130
Cc1ccc(F)c([C@@H](C)[C@H](NS(=O)(=O)c2ccc(F)c3c2OCCC3(C)O)c2n[nH]c(=O)o2)c1C (single isomer, unassigned) [Example 224B]	100
CC(=O)Nc1cc(Cl)ccc1S(=O)(=O)N[C@H](c1n[nH]c(=O)o1)[C@H](C)c1c(F)ccc(C)c1C [Example 274, N-(5-chloro-2-(N-((1S,2R)-2-(6-fluoro-2,3-dimethylphenyl)-1-(5-oxo-4,5-dihydro-1,3,4-oxadiazol-2-yl)propyl)sulfamoyl)phenyl)acetamide]	440
